Consider 28 molecules from patent publication US10703764B2, “Benzopiperazine compositions as BET bromodomain inhibitors” (FORMA Therapeutics, Inc., priority 2013, dated 2020).

In experiment [1] the target is T1, BRD4 BD1 (Homo sapiens, UniProt O60885).
T1 construct: made in house
The experiment is described as follows: AlphaScreen binding assay, BRD4 Bromodomain 1. A digest of the protocol: (§1)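 Compound dilution series were mixed with His-tagged BRD4 bromodomain and biotinylated tetra-acetylated H4 (1-21) peptide at pH 7.3 (BD1 and peptide at 50 nM, BD2 and peptide at 100 nM). Donor and acceptor beads were then added, and plates were equilibrated at least 1 h before reading. IC50 values were fitted with a four-parameter logistic model.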
(In Alpha technology, singlet oxygen from a donor bead excites a nearby acceptor bead.)

Experiment [2] deals with T2, BRD4 BD2 (Homo sapiens, UniProt O60885).
T2 construct: made in house
The experiment is described as follows: AlphaScreen binding assay, BRD4 Bromodomain 2. The gist of the method:
as §1

Experiment [3] relates to MV4-11 cells. In words: Oncology cell growth assay (3-day proliferation, CellTiter-Glo). In kind it is cell-based. Particulars: Homo sapiens, MV4-11, 72 h, AML cell line MV4-11, 72 hours, compounds grouped by IC50 range, read-out: MV4-11 IC50 (inhibition of proliferation, gIC50). The gist of the method:
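Luminescence from CellTiter-Glo served as the growth read-out after MV4-11 cells (3000/well) were cultured with compound for 72 hours. Final concentrations spanned 10 to 0.0045 μM in 3-fold steps. gIC50 values were derived by four-parameter logistic fitting relative to DMSO and cell-free controls.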

Each structure is given as a SMILES string.

With `CC(=O)N1c2ccc(-c3cnn(C4CC4)c3)cc2N(c2ncc3ccccc3n2)C[C@@H]1C` [Example I-51, (S)-1-(6-(1-cyclopropyl-1H-pyrazol-4-yl)-2-methyl-4-(quinazolin-2-yl)-3,4-dihydroquinoxalin-1(2H)-yl)ethanone], the IC50 in experiment [1] is 100 to 1000 nM; in experiment [2], 50 to 500 nM; in experiment [3], 100 to 500 nM.
Regarding `CCOC(=O)N1C[C@H](C)N(C(C)=O)c2ccc(-c3cccc(S(=O)(=O)N(C)C)c3)cc21` [Example I-1048], the results for the IC50 in experiment [1], in experiment [2] and in experiment [3] were 1000 to 10000 nM, 50 to 500 nM and above 500 nM, respectively.
As to `C[C@H]1CN(C(=O)C2CC2)c2cc(-c3cnn(C4CC4)c3)ccc2N1C(=O)C1CC1` [Example I-377], the IC50 fell in the range of 100 to 1000 nM in experiment [1], 50 to 500 nM in experiment [2] and 100 to 500 nM in experiment [3].
With `COC(=O)N1c2ccc(-c3cnn(Cc4cncnc4)c3)cc2N(C(=O)OC(C)C)C[C@@H]1C` [Example I-632], the figures for the IC50 in experiment [1], in experiment [2] and in experiment [3] were 100 to 1000 nM, 50 to 500 nM and 100 to 500 nM, respectively.
Take `CC(=O)N1c2ccc(-c3ccc(S(=O)(=O)CC(C)C)cc3)cc2N(C(=O)C2CCC2)C[C@@H]1C` [Example I-1079]: the IC50 in experiment [1] is 1000 to 10000 nM; in experiment [2], 50 to 500 nM; in experiment [3], above 500 nM.
Regarding `CC(=O)N1c2ccc(-c3cnn(C4CC4)c3)cc2N(C(=O)Oc2ccc(F)cc2F)C[C@@H]1C` [Example I-499], the IC50 fell in the range of 100 to 1000 nM in experiment [1], 50 to 500 nM in experiment [2] and 100 to 500 nM in experiment [3].
For the molecule `CCOC(=O)N1C[C@H](C)N(C(C)=O)c2ccc(-c3ccc(OC)c(NS(C)(=O)=O)c3)cc21` [Example I-1141], the figures for the IC50 in experiment [1], in experiment [2] and in experiment [3] were 100 to 1000 nM, 50 to 500 nM and 100 to 500 nM, respectively.
For `CC(=O)N1c2ccc(-c3cccc(NS(=O)(=O)N(C)C)c3)cc2N(C(=O)OC2CCCCC2)C[C@@H]1C` [Example I-1273], in that order: 100 to 1000 nM, 50 to 500 nM and 100 to 500 nM.
For `CCOC(=O)N1C[C@H](C)N(C(C)=O)c2ccc(-c3ccc(S(=O)(=O)CC4CC4)cc3)cc21` [Example I-1076], the IC50 in experiment [1] is 1000 to 10000 nM; in experiment [2], 50 to 500 nM; in experiment [3] it was above 500 nM.
For `CC(=O)N1c2ccc(-c3ccc(S(C)(=O)=O)cc3)cc2N(C(=O)OC(C)C)C[C@@H]1C` [Example I-294], in that order: 100 to 1000 nM, below 50 nM and 100 to 500 nM.
On to `COC(=O)Nc1cc2c(cc1-c1ccc(S(C)(=O)=O)cc1)N(C(=O)OC(C)C)C[C@H](C)N2C(C)=O` [Example I-198, Isopropyl (S)-4-acetyl-6-((methoxycarbonyl)amino)-3-methyl-7-(4-(methylsulfonyl)phenyl)-3,4-dihydroquinoxaline-1 (2H)-carboxylate], for which the IC50 in experiment [1] is 1000 to 10000 nM; in experiment [2], above 500 nM; in experiment [3], above 500 nM.
In the case of `CC(=O)N1c2ccc(-c3ccc(C(=O)N4CC[C@@H](N(C)C)C4)cc3)cc2N(C(=O)OC(C)C)C[C@@H]1C` [Example I-542], the figures for the IC50 in experiment [1], in experiment [2] and in experiment [3] were below 100 nM, below 50 nM and below 100 nM, respectively.
Regarding `CC(=O)N1c2ccc(-c3cnn(C4CS(=O)(=O)C4)c3)cc2N(C(=O)C2CC2)C[C@@H]1C` [Example I-1305], the IC50 in experiment [1] is 1000 to 10000 nM; in experiment [2], below 50 nM; in experiment [3], above 500 nM.
With `CC(=O)N1c2ccc(-c3ccc4c(c3)CCN4S(C)(=O)=O)cc2N(C(=O)Oc2ccccn2)C[C@@H]1C` [Example I-1328], the IC50 in experiment [1] fell in the range of 100 to 1000 nM; in experiment [2] it was 50 to 500 nM; in experiment [3], 100 to 500 nM.
On the same counts, the results for `CC(=O)N1c2ccc(-c3ccc(C(=O)N4CCCC4)cc3)cc2N(C(=O)c2ccco2)C[C@@H]1C` [Example I-282] are 1000 to 10000 nM, below 50 nM and 100 to 500 nM.
With `CC(=O)N1c2ccc(-c3cnn(CCO)c3)cc2N(C(=O)N(C)C(C)C)C[C@@H]1C` [Example I-1211], the IC50 in experiment [1] is above 10000 nM; in experiment [2], 50 to 500 nM; in experiment [3], above 500 nM.
Take `CCOC(=O)N1C[C@H](C)N(C(C)=O)c2ccc(-c3cc(Cl)cc(S(C)(=O)=O)c3)cc21` [Example I-1096]: the results for the IC50 in experiment [1], in experiment [2] and in experiment [3] were 1000 to 10000 nM, above 500 nM and above 500 nM, respectively.
For the molecule `CC(=O)N1c2ccc(-c3cnn(Cc4cccnc4)c3)cc2N(C(=O)OC(C)C)C[C@@H]1C` [Example I-119, (S)-isopropyl 4-acetyl-3-methyl-7-(1-(pyridin-3-ylmethyl)-1H-pyrazol-4-yl)-3,4-dihydroquinoxaline-1(2H)-carboxylate], the figures for the IC50 in experiment [1], in experiment [2] and in experiment [3] were 100 to 1000 nM, below 50 nM and 100 to 500 nM, respectively.
In the case of `CCCS(=O)(=O)c1ccc(-c2ccc3c(c2)N(C(=O)OC2CCOCC2)C[C@H](C)N3C(C)=O)cc1` [Example I-1236], the results for the IC50 in experiment [1], in experiment [2] and in experiment [3] were 100 to 1000 nM, 50 to 500 nM and 100 to 500 nM, respectively.
`CC(=O)N1c2ccc(-c3cnn(C4CCNCC4)c3)cc2N(C(=O)OC2CCC(F)(F)CC2)C[C@@H]1C` [Example I-153, (S)-4,4-difluorocyclohexyl 4-acetyl-3-methyl-7-(1-(piperidin-4-yl)-1H-pyrazol-4-yl)-3,4-dihydroquinoxaline-1(2H)-carboxylate]: the IC50 was 100 to 1000 nM in experiment [1], 50 to 500 nM in experiment [2] and 100 to 500 nM in experiment [3].
As to `CC(=O)N1c2ccc(-c3ccc(C(=O)N4CCC(N)CC4)cc3)cc2N(C(=O)OC(C)C)C[C@@H]1C` [Example I-590], the IC50 in experiment [1] lay in the range of 100 to 1000 nM; in experiment [2], 50 to 500 nM; in experiment [3] it was 100 to 500 nM.
Regarding `CC(=O)N1c2ccc(-c3ccc(C(=O)N4CCN(C=O)CC4)cc3)cc2N(C(=O)OC(C)C)C[C@@H]1C` [Example I-545], the IC50 in experiment [1] lay within 100 to 1000 nM; in experiment [2], 50 to 500 nM; in experiment [3] it was 100 to 500 nM.
`CC(=O)N1c2ccc(-c3ccc(S(N)(=O)=O)c(F)c3)cc2N(C(=O)OC(C)C)C[C@@H]1C` [Example I-1298]: the values for the IC50 in experiment [1], in experiment [2] and in experiment [3] were 1000 to 10000 nM, 50 to 500 nM and above 500 nM, respectively.
Consider `CC(C)OC(=O)N1C[C@H](C)N(C(=O)C2CC2)c2ccc(-c3ccc(S(=O)(=O)CCO)cc3)cc21` [Example I-479], for which the IC50 in experiment [1] was 100 to 1000 nM; in experiment [2] it was above 500 nM; in experiment [3], above 500 nM.
For the molecule `CC(C)OC(=O)N1C[C@H](C)N(C(=O)C2CC2)c2ccc(-c3ccc(C(=O)N4CC[C@@H](O)C4)cc3)cc21` [Example I-576], the values for the IC50 in experiment [1], in experiment [2] and in experiment [3] were 100 to 1000 nM, 50 to 500 nM and 100 to 500 nM, respectively.
As to `COc1ccc(F)c(OC(=O)N2C[C@H](C)N(C(C)=O)c3ccc(-c4cnn(C5CC5)c4)cc32)c1` [Example I-524], the values for the IC50 in experiment [1], in experiment [2] and in experiment [3] were 100 to 1000 nM, 50 to 500 nM and below 100 nM, respectively.
As for `COC(=O)N1c2ccc(-c3cnn(Cc4cnccn4)c3)cc2N(C(=O)OC(C)C)C[C@@H]1C` [Example I-633], the IC50 in experiment [1] lay within 100 to 1000 nM; in experiment [2] it was 50 to 500 nM; in experiment [3], 100 to 500 nM.
Regarding `CC(=O)N1c2ccc(-c3cnn(C4CC4)c3)cc2N(C(=O)OCC2CC2)C[C@@H]1C` [Example I-994], the IC50 in experiment [1] lay in the range of 100 to 1000 nM; in experiment [2], 50 to 500 nM; in experiment [3], 100 to 500 nM.
